Test results from patent US20260159536A1, “AKR1C3-ACTIVATED DNA ALKYLATING AGENT, AND MEDICAL APPLICATION THEREOF” (ASCENTAWITS PHARMACEUTICALS, LTD., priority 2021, published 2026).

Columns and labels:
[1] = tested on: human liver cancer HepG2 cells; assay: In vivo pharmacodynamics, liver cancer HepG2 CDX model; design: species or system BALB/c nude mice; settings: for Tumor volume (x ± S): in mm³ (unit assumed)
Description: Experiment Instruction: BALB/c nude mice were subcutaneously inoculated with human liver cancer HepG2 cells to establish a subcutaneous transplantation tumor model of human liver cancer. […] The efficacy was evaluated according to the relative tumor inhibition rate TGI (%), and the safety was evaluated according to the change in body weight and the death of the animals.

MHCC97H = assay: Cytotoxicity on hepatocellular carcinoma cell line MHCC97H; assay type: cell-based
Description: If not otherwise specified, IC50 values were measured by the following experimental methods:
a) Cells were plated for 24 hours, and then the compounds acted singly. 99 μL of growth medium was supplemented per well, and then 1 μL of 200× compound was added, gently shaken to ensure uniform mixing, and then placed in a 37° C., 5% CO2 incubator.
b) The cell plate was placed in the incubator for 72 hours.
b) 100 μL of CTG reagent (CelltiterGlo kit) was added to each well, the plate was placed in a rapid oscillator and shaken for 2 minutes, and then placed at room temperature for 30 minutes away from light.
The IC50 was calculated using GraphPad Prism 8 software and the IC50 (half inhibitory concentration) of the compounds was obtained using the following non-linear fitting formula: […]
Using the same experimental methods as described above, Compounds A, B and C were further tested for cytotoxicity against different hepatocellular carcinoma (HCC) cell lines SNU354, SNU886, MHCC97H and huH-1, and the results were shown in Table 2 below: […]

[2] = tested on: HuPrime model LI6280 human liver cancer; assay: In vivo pharmacodynamics, liver cancer LI6280 PDX model; design: species or system BALB/c nude mice; settings: for Tumor volume: 4.5 mg/kg i.v.
Description: Experiment Instruction: BALB/c nude mice were subcutaneously inoculated with HuPrime® model LI6280 tumour blocks to establish a subcutaneous transplantation tumour model of human liver cancer. […] The efficacy was evaluated according to the relative tumor inhibition rate TGI (%), and the safety was evaluated according to the change in body weight and the death of the animals.

[3] = MTD assay and toxicokinetics of Compound A, single 30 min intravenous infusion
[4] = 1.25 mg/kg, QDx5, 2 days off, 2 weeks off, QDx5, i.p., Day 53
[5] = 2.5 mg/kg, QDx5, 2 days off, 2 weeks off, QDx5, i.p., Day 53
[6] = 5 mg/kg, QDx5, 2 days off, 2 weeks off, QDx5, i.p., Day 53
[7] = 5 mg/kg, QWx2, 1 week off, QWx2, i.v., Day 53
[8] = 10 mg/kg, QWx2, 1 week off, QWx2, i.v., Day 53

O=[N+]([O-])c1ccc(C(OP(=O)(N2CC2)N2CC2)C(F)(F)F)cc1Oc1ccc(-c2ccc(F)cc2)c(F)c1 (racemic) [Compound A]
Tumor volume ([1]; 1.25 mg/kg i.p., Day 19): 189.54 mm^3
Tumor volume ([1]; 1.25 mg/kg i.p., Day 22): 315.41 mm^3
Tumor volume ([1]; 1.25 mg/kg i.p., Day 24): 351.74 mm^3
Tumor volume ([1]; 1.25 mg/kg i.p., Day 27): 383.10 mm^3
Tumor volume ([1]; 1.25 mg/kg i.p., Day 31): 366.64 mm^3
Tumor volume ([1]; 1.25 mg/kg i.p., Day 36): 416.27 mm^3
Tumor volume ([1]; 1.25 mg/kg i.p., Day 39): 586.80 mm^3
Tumor volume ([1]; 1.25 mg/kg i.p., Day 42): 782.39 mm^3
Tumor volume ([1]; 1.25 mg/kg i.p., Day 46): 886.97 mm^3
Tumor volume ([1]; 1.25 mg/kg i.p., Day 49): 975.41 mm^3
Tumor volume ([1]; 1.25 mg/kg i.p., Day 53): 1066.23 mm^3
Relative tumor volume (x ± S) [1, 4]: 5.57 ± 1.26
T/C (%) [1, 4]: 47.03%
TGI (%) [1, 4]: 52.97%
Tumor volume (x ± S) [1, 4]: 1066.23 ± 252.18
Tumor volume ([1]; 2.5 mg/kg i.p., Day 19): 189.31 mm^3
Tumor volume ([1]; 2.5 mg/kg i.p., Day 22): 292.03 mm^3
Tumor volume ([1]; 2.5 mg/kg i.p., Day 24): 360.14 mm^3
Tumor volume ([1]; 2.5 mg/kg i.p., Day 27): 373.23 mm^3
Tumor volume ([1]; 2.5 mg/kg i.p., Day 31): 405.67 mm^3
Tumor volume ([1]; 2.5 mg/kg i.p., Day 36): 392.90 mm^3
Tumor volume ([1]; 2.5 mg/kg i.p., Day 39): 342.04 mm^3
Tumor volume ([1]; 2.5 mg/kg i.p., Day 42): 399.84 mm^3
Tumor volume ([1]; 2.5 mg/kg i.p., Day 46): 417.54 mm^3
Tumor volume ([1]; 2.5 mg/kg i.p., Day 49): 456.60 mm^3
Tumor volume ([1]; 2.5 mg/kg i.p., Day 53): 417.76 mm^3
Relative tumor volume (x ± S) [1, 5]: 2.19 ± 0.52
T/C (%) [1, 5]: 18.46%
TGI (%) [1, 5]: 81.54%
Tumor volume (x ± S) [1, 5]: 417.76 ± 105.16
euthanasia owing to BWL>20% ([1]; 5 mg/kg QDx5, 2 days off, 2 weeks off, QDx5, i.p. (Group 7)): one mouse was euthanized
death ([1]; 5 mg/kg QWx2, 1 week off, QWx2, i.v. (Group 3)): one mouse in this group suffered death
Tumor volume ([1]; 5 mg/kg i.p., Day 19): 189.64 mm^3
Tumor volume ([1]; 5 mg/kg i.p., Day 22): 259.29 mm^3
Tumor volume ([1]; 5 mg/kg i.p., Day 24): 280.24 mm^3
Tumor volume ([1]; 5 mg/kg i.p., Day 27): 286.22 mm^3
Tumor volume ([1]; 5 mg/kg i.p., Day 31): 290.75 mm^3
Tumor volume ([1]; 5 mg/kg i.p., Day 36): 293.88 mm^3
Tumor volume ([1]; 5 mg/kg i.p., Day 39): 247.49 mm^3
Tumor volume ([1]; 5 mg/kg i.p., Day 42): 224.58 mm^3
Tumor volume ([1]; 5 mg/kg i.p., Day 46): 215.32 mm^3
Tumor volume ([1]; 5 mg/kg i.p., Day 49): 234.89 mm^3
Tumor volume ([1]; 5 mg/kg i.p., Day 53): 189.84 mm^3
Tumor volume ([1]; 5 mg/kg i.v., Day 19): 191.48 mm^3
Tumor volume ([1]; 5 mg/kg i.v., Day 22): 315.19 mm^3
Tumor volume ([1]; 5 mg/kg i.v., Day 24): 360.12 mm^3
Tumor volume ([1]; 5 mg/kg i.v., Day 27): 390.21 mm^3
Tumor volume ([1]; 5 mg/kg i.v., Day 31): 373.82 mm^3
Tumor volume ([1]; 5 mg/kg i.v., Day 36): 314.44 mm^3
Tumor volume ([1]; 5 mg/kg i.v., Day 39): 283.08 mm^3
Tumor volume ([1]; 5 mg/kg i.v., Day 42): 276.88 mm^3
Tumor volume ([1]; 5 mg/kg i.v., Day 46): 233.11 mm^3
Tumor volume ([1]; 5 mg/kg i.v., Day 49): 145.58 mm^3
Tumor volume ([1]; 5 mg/kg i.v., Day 53): 136.44 mm^3
Relative tumor volume (x ± S) [1, 6]: 0.99 ± 0.38
T/C (%) [1, 6]: 8.33%
TGI (%) [1, 6]: 91.67%
Tumor volume (x ± S) [1, 6]: 189.84 ± 72.81
Relative tumor volume (x ± S) [1, 7]: 0.70 ± 0.34
T/C (%) [1, 7]: 5.92%
TGI (%) [1, 7]: 94.08%
Tumor volume (x ± S) [1, 7]: 136.44 ± 66.47
weight loss or death ([1]; 10 mg/kg i.v. (Group 4) and 2.5 mg/kg i.p. (Group 6)): did not cause severe weight loss or death
Tumor volume ([1]; 10 mg/kg i.v., Day 19): 191.97 mm^3
Tumor volume ([1]; 10 mg/kg i.v., Day 22): 314.32 mm^3
Tumor volume ([1]; 10 mg/kg i.v., Day 24): 375.81 mm^3
Tumor volume ([1]; 10 mg/kg i.v., Day 27): 427.75 mm^3
Tumor volume ([1]; 10 mg/kg i.v., Day 31): 386.68 mm^3
Tumor volume ([1]; 10 mg/kg i.v., Day 36): 347.85 mm^3
Tumor volume ([1]; 10 mg/kg i.v., Day 39): 312.31 mm^3
Tumor volume ([1]; 10 mg/kg i.v., Day 42): 252.78 mm^3
Tumor volume ([1]; 10 mg/kg i.v., Day 46): 197.45 mm^3
Tumor volume ([1]; 10 mg/kg i.v., Day 49): 142.21 mm^3
Tumor volume ([1]; 10 mg/kg i.v., Day 53): 88.20 mm^3
Relative tumor volume (x ± S) [1, 8]: 0.45 ± 0.15
T/C (%) [1, 8]: 3.83%
TGI (%) [1, 8]: 96.17%
Tumor volume (x ± S) [1, 8]: 88.20 ± 29.95
complete cure ([1]; one mouse in each of Groups 3, 4, 7): completely cured
IC50 (MHCC97H; Homo sapiens): 396 nM
ratio A/B (MHCC97H; IC50 ratio): 1.63
ratio A/C (MHCC97H; IC50 ratio): 0.70
Relative tumor volume (x ± S) ([2]; 4.5 mg/kg i.v. QWx3, Day 17): 20.79 ± 1.15
T/C (%) ([2]; 4.5 mg/kg i.v. QWx3, Day 17): 101.41%
TGI (%) ([2]; 4.5 mg/kg i.v. QWx3, Day 17): −1.41%
Tumor volume (x ± S) ([2]; 4.5 mg/kg i.v. QWx3, Day 17, in mm³ (unit assumed)): 2201.20 ± 287.44
Tumor volume ([2]; Day 0): 103.98 mm^3
Tumor volume ([2]; Day 3): 150.33 mm^3
Tumor volume ([2]; Day 7): 318.74 mm^3
Tumor volume ([2]; Day 10): 683.99 mm^3
Tumor volume ([2]; Day 14): 1404.42 mm^3
Tumor volume ([2]; Day 17): 2201.20 mm^3
Tumor volume ([2]; Day 21): 2739.12 mm^3
Tumor volume ([2]; Day 24): 3311.77 mm^3
Tumor volume ([2]; Day 28): 3362.07 mm^3
exposure ([3]; 1, 3, 6 mg/kg): dose proportional
survival ([3]; 1, 3, 6 mg/kg, until planned dissection): all animals survived
MTD at 14 days ([3]; both, monkey (machins), in vivo, iv): > 6 mg/kg
clearance ([3]; both, monkey (machins), plasma, iv): 22.3 to 45.3 mL/min/kg
clinical observation ([3]; females, 3 mg/kg and 6 mg/kg): slight erythema at the site of the administration
clinical observation ([3]; males and females, 6 mg/kg): Soft stools
